These results are taken from US5565426A, “Peptide compounds active in cell adhesion processes” (Adir et Compagnie, priority 1992, dated 1996).

Non-standard residues stand in square brackets, D forms with d. Residues, ends and D or L forms follow the SMILES beside them. GABA = NCCCC(=O)O A value given as a limit tells only on which side of the number the result lay.

Test [1] concerns mice (CD-1), collagen/adrenaline-induced thromboembolism. Nature of the test: Thromboembolism in mice (collagen + adrenaline i.v.). It is filed as in vivo. Particulars: for dose from which formation of microthrombi in the lungs is inhibited: histological examination of lungs; for dose that protects half of the mice: i.v., injected with collagen + adrenaline, death or paralysis at 15 min. On the procedure: Male mice (CD-1) weighing from 28 to 32 g are used for these experiments. The animals are maintained at from 26° to 28° C. for the 30 minutes preceding the experiment. A combination of collagen (150 μg/ml) and adrenaline (100 μmol/l) causes the mice to die by paralysis. Each mouse receives 0.1 ml of that combination, which gives a dose of 1.8 μg of adrenaline and 15 μg of collagen per mouse. The incidence of death or paralysis is observed 15 minutes after the intravenous injection (i.v.) of the combination (adrenaline+collagen) into the caudal vein. The peptides are injected at the same time as the combination of agonists. In the case of the tests relating to the duration of action, the mice are pre-treated with the peptides i.v. in a volume of 0.1 ml. A histological examination of the lungs is carried out in order to visualise the presence of microthrombi in the vessels of the microcirculation, which are attributable to the adrenaline-collagen combination. At the end of the experiment, the lungs are rapidly removed, fixed in formalin and then enclosed in paraffin. 5 μm sections are made and coloured with haematoxylin/eosin. The sections are examined and the presence or absence of microthrombi is noted. The X^2 test (Fischer) is used to determine whether there is a significant difference between the effects in mice that have received the peptides and those that have not.

Test [2] has as its system formation of a blood clot in the mesenteric artery of the rat. Nature of the test: Experimental thrombosis in the mesenteric artery of the rat. The format is in vivo. Particulars: venous infusion for 5 min. On the procedure:
The experiments were carried out on male rats (250 to 400 g). The animals are anaesthetised with pentobarbitone (50 mg/kg i.p.). A catheter is installed in the jugular vein in order to permit i.v. injections.
The preparation of the mesenteric artery and the induction of thrombosis are carried out in accordance with the method described by Bourgain et al. Adv. Exp. Med. Biol., 180, 635-649, (1984). A longitudinal incision is made in the abdomen and part of the intestine is exposed. Using a binocular magnifying device, a branch of the mesenteric artery from 200 to 500 μm in diameter is prepared. The adjacent vein is separated and the adipose tissues are removed; a 2 mm segment of artery is thus prepared. The animal is then installed under a microscope and the segment of the mesenteric artery is perfused with physiological solution (37° C.) at 5 ml/min. The segment can be observed for several hours. The images are recorded using a video camera and a magnetoscope.
After installation and stabilisation of the preparation, a platinum electrode is placed on each side of the arteriole wall using a micromanipulator. An endothelial lesion is then induced by applying for 60 seconds an electric current of 40 μA, the current being reversed every 5 seconds. […] Normally, no thrombus formation is observed on applying the electric current.
The formation of a clot is then induced by perfusion with ADP (adenosine diphosphate) for 2 minutes. The ADP is used at a final molarity of 300 μM. The clot forms and then, after 2 to 5 minutes, disappears by embolisation. The vessel then re-assumes a normal state; there is no spontaneous formation of a clot.
The effect of the products on the formation of thrombi was tested by treating the animals by venous infusion for 5 minutes. The infusion starts […] minute before perfusion with ADP.
The recorded images are analysed and the size of the clots is expressed in arbitrary surface values. The measurements are carried out at determined times during and after the perfusion of ADP. A comparison can therefore be made of the size of the clots in the control state and after the infusion of the product.

Consider `N=C(N)NCCC[C@H](NC(=O)CCCN)C(=O)NCC(=O)N[C@@H](CC(=O)O)C(=O)N[C@@H](Cc1c[nH]c2ccccc12)C(=O)O` [Example 11, H2 N--(CH2)3 --CO--Arg--Gly--Asp--Trp--OH] (H-[GABA]RGDW-OH), for which, in test [1], the “dose from which formation of microthrombi in the lungs is inhibited” value was at least 0.03 mg/mouse and the “dose that protects half of the mice” value is 0.03 mg/mouse. Moreover, the “times more active than the reference substance (RGDW)” value in test [1] (ratio of doses protecting half of the mice) was determined as 10 times.
Regarding `N=C(N)NCCC[C@H](N)C(=O)NCC(=O)N[C@@H](CC(=O)O)C(=O)N[C@@H](Cc1c[nH]c2ccccc12)C(=O)O` [H--Arg--Gly--Asp--Trp--OH, reference compound] (H-RGDW-OH), the “Percentage inhibition of the formation of a blood clot in the mesenteric artery of the rat” value in test [2] (10 mg/kg/min) is given as 36%. In addition, the duration of action entry in test [1] (dose of 1 mg, i.v. pre-treatment) is recorded as “less than 5 minutes”. Also, in test [1], the “dose from which formation of microthrombi in the lungs is inhibited” value was at least 1 mg/mouse and the “dose that protects half of the mice” value is reported as 0.3 mg/mouse.
As to `NCCCC[C@H](NC(=O)CCCN)C(=O)NCC(=O)N[C@@H](CC(=O)O)C(=O)N[C@@H](Cc1c[nH]c2ccccc12)C(=O)O` [Example 12, H2 N--(CH2)3 --CO--Lys--Gly--Asp--Trp--OH] (H-[GABA]KGDW-OH), the results for the “Percentage inhibition of the formation of a blood clot in the mesenteric artery of the rat” value in test [2] (2 mg/kg/min), in test [2] (5 mg/kg/min) and in test [2] (10 mg/kg/min) were 17%, 33% and 56%, respectively.
